Measurements published in paper PMC9415608, “Design, Synthesis and Biological Investigation of 2-Anilino Triazolopyrimidines as Tubulin Polymerization Inhibitors with Anticancer Activities” (Pharmaceuticals, 2022).

Columns and labels:
[1] = test system: MDA-MB-231, HeLa, A549 and HT-29 cancer cell lines; experiment: Antiproliferative activity stated across the panel of cancer cell lines; type: cell-based, human; conditions: for IC50: Homo sapiens, stated for the panel of cancer cell lines as a whole, read-out: IC50
Protocol: (§1) All the cell lines used in this paper were of human origin and purchased from the American Type Culture Collection (ATCC, Manassas, VA, USA). Colon adenocarcinoma (HT-29), non-small cell lung carcinoma (A549), cervix carcinoma (HeLa) and breast adenocarcinoma (MDA-MB-231) cells were grown in RPMI (HT29) or DMEM (A549, HeLa, MDA-MB-231) medium (Gibco, Milano, Italy). Both media were supplemented with 115 units/mL of penicillin G (Gibco, Milano, Italy), 115 μg/mL of streptomycin (Invitrogen, Milano, Italy) and 10% fetal bovine serum (Invitrogen, Milano, Italy). All cell lines were grown at 37 °C in a humidified 5% CO2 atmosphere. The cells were grown in 2 mL of complete medium.
(§2) Stock solutions were prepared for each compound by dissolving in DMSO at the final concentration of 10 mM.
(§3) The cells were seeded in 96-well plates at the appropriate density for each cell line. The respective cell line densities used for the antiproliferative assay were HeLa and HT29 5000 cells/well, A549 4000 cells/well and MDA-MB-231 7000 cells/well. The total volume of medium was 100 µL. After 24 h, the cells were treated by performing serial 5-fold dilutions of the tested compounds starting from a concentration of 10 μM. All experimental conditions were tested in triplicate for statistical analysis. After 72 h of incubation, 10 μL of 100 μg/mL resazurin solution was added to each well and the plate was re-incubated for 3–4 h. The fluorescence of the wells in each plate was monitored using a Spark 10M spectrophotometer (Tecan Group Ltd., Mannedorf, Switzerland) with a 535 nm excitation wavelength and a 600 nm emission wavelength.

MDA-MB-231 = experiment: In vitro cell growth inhibition, resazurin viability assay; type: cell-based, human; conditions: Homo sapiens, MDA-MB-231; 72 h, resazurin; mean ± SE
Protocol: as §1, §2, §3

HeLa = experiment: as above; type: cell-based, human; conditions: Homo sapiens; 72 h, resazurin; mean ± SE
Protocol: as §1, §2, §3

A549 = experiment: as above; type: cell-based, human; conditions: Homo sapiens, A549; 72 h, resazurin; mean ± SE
Protocol: as §1, §2, §3

HT29 = experiment: as above; type: cell-based, human; conditions: Homo sapiens, HT-29; 72 h, resazurin; mean ± SE
Protocol: as §1, §2, §3

Bovine brain tubulin [2] = experiment: Inhibition of [3H]colchicine binding to tubulin; conditions: tubulin 0.5 µM, [3H]colchicine 5 µM, tested compound 5 µM
Protocol: (§4) Bovine brain tubulin was purified as described previously. To evaluate the effects of the compounds on tubulin assembly in vitro [80], varying concentrations were preincubated with 10 μM tubulin in 0.8 M monosodium glutamate (pH 6.6) at 30 °C and the reaction mixtures then cooled to 0 °C. After addition of GTP, the mixtures were transferred to 0 °C cuvettes in Beckman Coulter (Brea, CA, USA) DU-7400/DU-7500 recording spectrophotometers equipped with electronic temperature controllers and warmed to 30 °C, and the assembly of tubulin was observed turbidimetrically. […] Inhibition of colchicine binding to tubulin was measured as described before, except that the reaction mixtures contained 0.5 μM tubulin and 5 μM each of [^3H]colchicine and test compound. Only one DEAE-cellulose filter was used per sample, and filtration was by gravity.
(§5) Bovine brain tubulin (see ref. [79] for details of purification) was used to examine effects on tubulin polymerization and colchicine binding. Briefly, in the polymerization experiments, different compound concentrations were preincubated with 10 µM tubulin for 15 min at 30 °C and cooled on ice. After GTP was added to each reaction mixture, the samples were transferred to 0 °C cuvettes in recording spectrophotometers with electronic temperature controllers. The temperature was raised to 30 °C over about 30 s, and turbidity development was followed for 20 min at 350 nm. […] In the current studies, [^3H]colchicine (from American Radiolabeled Corp., St. Louis, MO) binding was measured after 10 min at 37 °C. Reaction mixtures contained 0.5 µM tubulin and 5.0 µM each of the [^3H]colchicine and the potential inhibitor, and a single DEAE-cellulose filter was used for each sample, with gravity filtration.

Bovine brain tubulin [3] = experiment: Inhibition of tubulin polymerization (turbidimetric assembly assay); type: biochemical; conditions: tubulin at 10 μM, 20 min incubation; read-out: Tubulin Assembly IC50 ± SD
Protocol: as §4, §5

Row | Structure (SMILES) | IC50 [1] [µM] | IC50 (MDA-MB-231) [µM] | IC50 (HeLa) [µM] | IC50 (A549) [µM] | IC50 (HT29) [µM] | melting point [°C] | Colchicine Binding % Inhibition ± SD (Bovine brain tubulin [2]) [%] | IC50 (Bovine brain tubulin [3]) [µM] | fold increase in antiproliferative activity relative to 3k ([1]; three of the four cancer cell lines)
1 | COc1cc(-c2ccnc3nc(NCc4ccc5c(c4)OCO5)nn23)cc(OC)c1OC [Compound 3t, N-(Benzo[d][1,3]dioxol-5-ylmethyl)-7-(3,4,5-trimethoxyphenyl)-[1,2,4]triazolo[1,5-a]pyrimidin-2-amine] | > 10 | > 10 | > 10 | > 10 | > 10 | 233 to 235 |  |  | 
2 | COc1ccc(Nc2nc3nccc(-c4cc(OC)c(OC)c(OC)c4)n3n2)cc1 [Compound 3k, N-(4-Methoxyphenyl)-7-(3,4,5-trimethoxyphenyl)-[1,2,4]triazolo[1,5-a]pyrimidin-2-amine] |  |  |  |  |  | 213 to 215 |  |  | 
3 | COc1cccc(Nc2nc3nccc(-c4cc(OC)c(OC)c(OC)c4)n3n2)c1 [Compound 3l, N-(3-Methoxyphenyl)-7-(3,4,5-trimethoxyphenyl)-[1,2,4]triazolo[1,5-a]pyrimidin-2-amine] |  | 1.76 ± 0.9 | 0.44 ± 0.08 | 0.76 ± 0.18 | 0.76 ± 0.18 | 165 to 166 | 39 ± 5 | 2.2 ± 0.2 | 
4 | COc1cc(-c2ccnc3nc(NCc4ccccc4)nn23)cc(OC)c1OC [Compound 3p, N-Benzyl-7-(3,4,5-trimethoxyphenyl)-[1,2,4]triazolo[1,5-a]pyrimidin-2-amine] | > 10 | 9.3 ± 0.22 | > 10 | > 10 | > 10 | 144 to 146 |  |  | 
5 | COc1cc(-c2ccnc3nc(Nc4ccc(F)cc4)nn23)cc(OC)c1OC [Compound 3c, N-(4-Fluorophenyl)-7-(3,4,5-trimethoxyphenyl)-[1,2,4]triazolo[1,5-a]pyrimidin-2-amine] |  | > 10 | 5.44 ± 1.05 | > 10 | > 10 | 234 to 235 |  |  | 
6 | COc1cc(-c2ccnc3nc(Nc4ccc(C(C)C)cc4)nn23)cc(OC)c1OC [Compound 3j, N-(4-Isopropylphenyl)-7-(3,4,5-trimethoxyphenyl)-[1,2,4]triazolo[1,5-a]pyrimidin-2-amine] |  | > 10 | 4.7 ± 0.59 | > 10 | > 10 | 212 to 214 |  |  | 
7 | CCOc1ccc(Nc2nc3nccc(-c4cc(OC)c(OC)c(OC)c4)n3n2)cc1 [Compound 3m, N-(4-Ethoxyphenyl)-7-(3,4,5-trimethoxyphenyl)-[1,2,4]triazolo[1,5-a]pyrimidin-2-amine] | > 10 | > 10 | > 10 | > 10 | 6.16 ± 0.97 | 205 to 207 |  |  | 
8 | COc1cc(-c2ccnc3nc(Nc4ccc5c(c4)OCO5)nn23)cc(OC)c1OC [Compound 3n, N-(Benzo[d][1,3]dioxol-5-yl)-7-(3,4,5-trimethoxyphenyl)-[1,2,4]triazolo[1,5-a]pyrimidin-2-amine] |  | 6.1 ± 1.72 |  | 1.44 ± 0.26 | 1.39 ± 0.06 | 234 to 236 |  |  | 1.5- to 4 fold
9 | CCCc1ccc(Nc2nc3nccc(-c4cc(OC)c(OC)c(OC)c4)n3n2)cc1 [Compound 3i, N-(4-Propylphenyl)-7-(3,4,5-trimethoxyphenyl)-[1,2,4]triazolo[1,5-a]pyrimidin-2-amine] |  | > 10 | > 10 | > 10 | > 10 | 185 to 187 |  |  | 
10 | COc1cc(-c2ccnc3nc(Nc4cc(C)cc(C)c4)nn23)cc(OC)c1OC [Compound 3g, N-(3,5-Dimethylphenyl)-7-(3,4,5-trimethoxyphenyl)-[1,2,4]triazolo[1,5-a]pyrimidin-2-amine] | > 10 | > 10 | > 10 | > 10 | > 10 | 228 to 230 |  |  | 
